Key:
[1] = Maximization Test (repeat insult patch test) for contact-sensitizing potential; type: in vivo, human; details: Vehicle+1% test substance, occlusive patch, 5 induction exposures with SLS pre-treatment, single challenge; graded 48 or 72 hours after application of challenge patches; healthy adult volunteers
Protocol: A study was performed to evaluate the contact-sensitizing potential of a topical Facial Cream containing idebenone dipalmitoyl glycerate (Vehicle+1% idebenone dipalmitoyl glycerate) using the Maximization Test. The test was a repeat insult patch test wherein the test material was applied under an occlusive dressing to the upper outer arm, volar forearm or back repeatedly to the same site for five 48-hour induction periods, followed 10-14 days later by a single challenge to a naive skin site. The test sample was coded Cream A and tested as supplied viz. neat. All test materials were stored under ambient conditions in an inaccessible location under the supervision of the investigator.
The test subjects were all healthy, adult volunteers over the age of 18 years. […]

[2] = Six-week double-blind clinical evaluation for the treatment of red and brown pigmented skin; type: in vivo, human; details: 0.5% in vehicle, twice a day to facial area for 6 weeks; expert grading of Canfield VISIA-CR RBX images; women ages 40-70
Protocol: A six-week double-blind clinical evaluation was performed, comparing a control vehicle to idebenone dipalmitoyl glycerate for the treatment of red and brown pigmented skin. Approximately 36 women, ages 40-70 with moderate hyperpigmentation and reddening of the skin were selected to participate in the study. Subjects were randomly assigned to one of three groups. Group I received a product with no idebenone active ingredient (vehicle), Group II received the same vehicle with 0.5% Idebenone (Hydroxydecyl Ubiquinone) added, and Group III received the same vehicle with 0.5% of Idebenone Dipalmitoyl Glycerate added. Subjects were instructed to apply the product twice a day (morning and evening) to the facial area for 6 weeks. Canfield VISIA-CR RBX images were made at baseline and after 6 weeks use and analyzed. Digital and UV photographs were also taken, standardizing distance and positioning of the subjects, pre and post product application.

Compound | subjects with contact allergy / positive reaction (recordable level of skin sensitization) after challenge [1] | subjects responded with a decrease in brown pigmentation [2] | subjects responded with less redness [2]
COC1=C(OC)C(=O)C(CCCCCCCCCCOP(=O)(O)O)=C(C)C1=O [idebenone phosphate ester] | Four subjects exhibited positive reactions |  | 
3-oxo-3-(9-(2,4,5-trimethyl-3,6-dioxocyclohexa-1,4-dienyl)monyloxy)propane-1,2-diyl dipalmitate [idebenone dipalmitoyl glycerate] |  | 75% | 58%
COC1=C(OC)C(=O)C(CCCCCCCCCCO)=C(C)C1=O [idebenone, 6-(10-hydroxydecyl)-2,3-dimethoxy-5-methyl-1,4-benzoquinone] |  | 67% | 58%

From US9290436B2, “Compositions containing carboxylic acid-substituted derivatives” (Elizabeth Arden, Inc., priority 2008, dated 2016)
